Measurements published in patent US11440903B2, “Salt form and crystal form of compound as FGFR4 inhibitor and preparation method thereof” (GUANGDONG ZHONGSHENG PHARMACEUTICAL CO., LTD, priority 2017, dated 2022).

What was measured:
Format in all cases: physicochemical
[1] = Solid stability test of the crystal forms (influence factors and acceleration tests; appearance, XRPD, HPLC content and impurities)
From the text: A sample of the crystal form A was placed on the bottom of a glass sample bottle, and spread to a thin layer. The sample stored under high temperature, high humidity, and acceleration conditions was placed in a bottle of which the mouth was packed with a pierced aluminum foil to ensure the sample to be sufficiently exposed to ambient air; the sample stored under light radiation conditions was placed at room temperature in a standing bottle of which the mouth was open, the sample was exposed to a light resource, and sampled for detection after being radiated by sufficient energy. Samples were taken and analyzed at various time points, and the test results were compared with the initial test results of 0 day, the inspection items included appearance, content and impurities, and the test results are shown in Table 9.
A sample of the crystal form B (10 mg) was placed on the bottom of a glass sample bottle, and spread to a thin layer. The sample stored under high temperature, high humidity, and acceleration conditions were placed in a bottle of which the mouth was packed with a pierced aluminum foil to ensure the sample to be sufficiently exposed to ambient air; the sample stored under light radiation conditions was placed at room temperature in a standing bottle of which the mouth was open, the sample was exposed to a light resource, and sampled for detection after being radiated by sufficient energy, the control sample stored in dark (open, the whole sample bottle was sealed with aluminum foil to keep the content in dark) and the sample stored under light radiation conditions were placed together to exclude environmental influence on the samples. Samples were taken and analyzed at various time points, and the test results were compared with the initial test results of 0 day, the inspection items included appearance, crystal form, content and impurities, the test results are shown in Table 10.
(§1) A sample of the crystal form C was taken and placed on the bottom of a glass sample bottle, and spread to a thin layer. The sample stored under high temperature, high humidity, and acceleration conditions was placed in a bottle of which the mouth was packed with a pierced aluminum foil to ensure the sample to be sufficiently exposed to ambient air; the sample stored under light radiation conditions was placed at room temperature in a standing bottle of which the mouth was open, the sample was exposed to a light resource, and sampled for detection after being radiated by sufficient energy. Samples were taken and analyzed at various time points, and the test results were compared with the initial test results of 0 day.
as §1, with “D” for “C”
A sample of the crystal form E (10 mg) was taken and placed on the bottom of a glass sample bottle, and spread to a thin layer. […]

[2] = Stability of the crystal form on stirring as suspension in solvent (40° C., 2 days)
Procedure: 30 mg of the compound represented by formula (I) was weighed and added into a glass flask, 400 μL acetonitrile-water (1:1) was added to form a suspension. A sample of the suspension was placed on a magnetic stirrer (40° C.) for a dark stirring experiment. The sample of the suspension was centrifuged after stirring at 40° C. for 2 days, and then the residual sample was dried in a vacuum drying oven (30° C.) overnight to give a crystal form A of the compound represented by formula (I). The XRPD pattern of the crystal form A of the compound represented by formula (I) is shown in FIG. 1, the DSC pattern is shown in FIG. 2, and the TGA pattern is shown in FIG. 3.
30 mg of the compound represented by formula (I) was weighed and added into a glass flask, and 400 μL ethyl acetate was added to form a suspension. A sample of the suspension was placed on a magnetic stirrer (40° C.) for dark stirring experiment. The sample of the suspension was centrifuged after stirring at 40° C. for 2 days, and then the residual sample was dried in a vacuum drying oven (30° C.) overnight. The crystal form was detected by XRPD to give a crystal form A of the compound represented by formula (I).
30 mg of the compound represented by formula (I) was weighed and added into a glass flask, and 400 μL methanol was added to form a suspension. A sample of the suspension was placed on a magnetic stirrer (40° C.) for dark stirring experiment. The sample of the suspension was centrifuged after stirring at 40° C. for 2 days, and then the residual sample was dried in a vacuum drying oven (30° C.) overnight to give a crystal form B of the compound represented by formula (I). The XRPD pattern of the crystal form B of the compound represented by formula (I) is shown in FIG. 4, the DSC pattern is shown in FIG. 5, and the TGA pattern is shown in FIG. 6.
50 mg of the compound represented by formula (I) was weighed and added into a 1.5 mL liquid vial, and 200 μL methanol was added thereto, the obtained mixture was homogeneously mixed under ultrasound. The dissolved sample was quickly centrifuged, and the supernatant was placed in a centrifuge tube, the mouth of the tube was packed with a pierced aluminum foil, and then the tube was placed in a fume cupboard for volatilization; the sample of the suspension was placed on a magnetic stirring heater (40° C.) for stirring (in dark), and quickly centrifuged after 2 days. The resultant solid was collected and dried at 30° C. in a vacuum drying oven overnight to give the crystal form C of the compound represented by formula (I). The XRPD pattern of the crystal form C of the compound represented by formula (I) is shown in FIG. 7, the DSC pattern is shown in FIG. 8, and the TGA pattern is shown in FIG. 9.
50 mg of the compound represented by formula (I) was weighed and added into a 1.5 mL liquid vial, and 200 μL ethanol was added thereto, and the obtained mixture was homogeneously mixed under ultrasound. The dissolved sample was quickly centrifuged, the supernatant was placed into a centrifuge tube, and the mouth of the tube was packed with a pierced aluminum foil, and placed in a fume cupboard for volatilization; the sample of the suspension was placed on a magnetic stirring heater (40° C.) for stirring (in dark), and quickly centrifuged after 2 days. The solid obtained as above was collected and dried at 30° C. in a vacuum drying oven overnight to give a crystal form D of the compound represented by formula (I). The XRPD pattern of the crystal form D of the compound represented by formula (I) is shown in FIG. 10, the DSC pattern is shown in FIG. 11, and the TGA pattern is shown in FIG. 12.
35 mg of the compound represented by formula (II) was weighed and added into a 1.5 mL liquid vial, and 400 μL methanol was added thereto, and the obtained mixture was homogeneously mixed under ultrasound. […]

[3] = Solubility test in biological media (FaSSIF, FeSSIF, SGF) and water, 37° C.; conditions: SGF and fasting or satiety state simulated intestinal fluid
Procedure: Step 1: Preparation of Control Solutions (0.2 mg/mL, calculated by free base)
2 mg the crystal form B of the compound represented by formula (I) (or 2.4 mg the crystal form E of the compound represented by formula (II)) as a control was precisely weighed and placed into a 40 mL glass vial, and a diluent (10 mL) was precisely added. The reaction solution was subjected to ultrasonic treatment for 20 min to sufficiently dissolve, then cooled to room temperature and shaked well. Two control solutions (STD #1, STD #2) were formulated in accordance with this method.
Step 2: Preparation of Linear Solutions
The control solution STD #1 of the crystal form B of the compound represented by formula (I) was 1×, 10×, 100×, 1000× and 2000× (free base LOQ) diluted, and designated as the linear solutions L1, L2, L3, L4 and L5; the control solution STD #1 of the crystal form E of the compound represented by formula (II) was 1×, 10×, 100× and 1000× (methanesulfonate LOQ) diluted, and designated as the linear solutions L1, L2, L3, L4.
Step 3: Solubility Test of the crystal form B of the compound represented by formula (I), the crystal form G of the compound represented by formula (III) and the crystal form E of the compound represented by formula (II) in biological media and water
4 samples (about 4 mg) of each of the crystal form B of the compound represented by formula (I), the crystal form E of the compound represented by formula (II), and the crystal form G of the compound represented by formula (III) were added into 12 glass vials (4 mL), respectively, and then 2 mL different biological media (FaSSIF, FeSSIF, SGF) and water were added into each compound respectively, then mixed homogeneously to form a suspension. The suspension was detected for its initial pH value. A magnet was added into the suspension, and placed on a magnetic stirring heater for stirring (at a temperature of 37° C., in dark). After stirring for 24 h, a sample was taken. The taken sample was quickly centrifuged, and the residual solid was detected by XRPD. The supernatant was detected for its pH value and diluted with a diluent into appropriate multiple, then measured with HPLC for its concentration.
FaSSIF: 1. 0.042 g sodium hydroxide, 0.3438 g sodium dihydrogen phosphate and 0.6186 g sodium chloride were weighed, added into 90 mL purified water, and homogeneously mixed, then, the mixture was adjusted with 1 N hydrochloric acid or 1 N sodium hydroxide to pH=6.5, and diluted into a constant volume of 100 mL with purified water; 2. 50 mL of the buffer described above was taken, and 0.224 g commercially available powder (Biorelevant.com) of FaSSIF/FeSSIF/FaSSGF was added thereto, the mixture was stirred to dissolve, and diluted with purified water to a constant volume of 100 mL.
FeSSIF: 1. 0.404 g sodium hydroxide, 0.865 g glacial acetic acid, and 1.1874 g sodium chloride were weighed, added into 90 mL purified water, and homogeneously mixed, then, the mixture was adjusted with 1 N hydrochloric acid or 1 N sodium hydroxide to pH=5.0, and diluted with purified water to a constant volume of 100 mL, 2. 50 mL of the buffer described above was taken, and 1.12 g commercially available powder (Biorelevant.com) of FaSSIF/FeSSIF/FaSSGF was added thereto, the mixture was stirred to dissolve, and diluted with purified water to a constant volume of 100 mL.
FaSSGF (SGF): 1. 0.2 g sodium chloride was weighed, added into 90 mL purified water, and mixed homogeneously, the mixture was adjusted with 1 N hydrochloric acid to pH=1.8, and diluted with purified water to a constant volume of 100 mL, and stood at room temperature.

[4] = Acceleration test (40° C./relative humidity of 75%, open), 5 days
[5] = Acceleration test (40° C./relative humidity of 75%, open), 10 days
[6] = High humidity (room temperature/relative humidity of 92.5%, open), 5 days
[7] = High humidity (room temperature/relative humidity of 92.5%, open), 10 days
[8] = High temperature (60° C., open), 5 days
[9] = High temperature (60° C., open), 10 days
[10] = Light radiation (total illumination: 1.2 × 10^6 Lux·hr), 5 days
[11] = Light radiation (total illumination: 1.2 × 10^6 Lux·hr), 10 days
[12] = conclusion of influence factors and acceleration tests

| Appearance ([1]; 0 day (initial)) | Content (%) ([1]; 0 day (initial)) | Total Impurities (%) ([1]; 0 day (initial)) | Appearance [1, 4] | Appearance [1, 5] | Content (%) [1, 5] | Total Impurities (%) [1, 5] | Appearance [1, 6] | Appearance [1, 7] | Content (%) [1, 7] | Total Impurities (%) [1, 7] | Appearance [1, 8] | Appearance [1, 9] | Content (%) [1, 9] | Total Impurities (%) [1, 9] | Appearance [1, 10] | Appearance [1, 11] | Content (%) [1, 11] | Total Impurities (%) [1, 11] | stability under acceleration conditions, conclusion in words [1, 12] | SMILES | further results |
| --- | --- | --- | --- | --- | --- | --- | --- | --- | --- | --- | --- | --- | --- | --- | --- | --- | --- | --- | --- | --- | --- |
| Off-white | 99.11% | 1.12% | Off-white | Off-white | 98.98% | 1.18% | Off-white | Off-white | 98.85% | 1.22% | Off-white | Off-white | 99.06% | 1.18% | Off-white | Off-white | 99.13% | 1.10% | relatively good | C=CC(=O)N[C@H]1COC[C@H]1Nc1ncc(/C=C(\F)c2c(Cl)c(OC)cc(OC)c2Cl)cn1 [Crystal Form A] | photostability (stability under light radiation), conclusion in words [1, 12]: relatively good; stability under high humidity conditions, conclusion in words [1, 12]: slightly less stability; thermal stability (high temperature), conclusion in words [1, 12]: relatively good; stability in the acetonitrile-water solution ([2]; stirring in acetonitrile-water (1:1) at 40° C. for 2 days): substantially high stability; stability in the ethyl acetate solution ([2]; stirring in ethyl acetate at 40° C. for 2 days): substantially high stability |
| Off-white | 98.96% | 1.25% | Off-white | Off-white | 98.96% | 1.26% | Off-white | Off-white | 98.22% | 2.08% | Off-white | Off-white | 98.93% | 1.27% | Off-white | Off-white | 98.35% | 1.86% | good | C=CC(=O)N[C@H]1COC[C@H]1Nc1ncc(/C=C(\F)c2c(Cl)c(OC)cc(OC)c2Cl)cn1 [Crystal Form C] | Crystal Form (XRPD) ([1]; 0 day (initial)): form C; Crystal Form (XRPD) [1, 5]: form C; Crystal Form (XRPD) [1, 7]: form C; Crystal Form (XRPD) [1, 9]: form C; Crystal Form (XRPD) [1, 11]: form C; thermal stability (high temperature), conclusion in words [1, 12]: good; stability in the methanol solution ([2]; stirring in methanol at 40° C. for 2 days): substantially high stability |
|  |  |  |  |  |  |  |  |  |  |  |  |  |  |  |  |  |  |  |  | C=CC(=O)N[C@H]1COC[C@H]1Nc1ncc(/C=C(\F)c2c(Cl)c(OC)cc(OC)c2Cl)cn1.CS(=O)(=O)O [compound represented by formula (II)] | solubility in simulated gastric fluid (SGF) and simulated intestinal fluid (FaSSIF), in words [3]: relatively good solubility |
|  |  |  |  |  |  |  |  |  |  |  |  |  |  |  |  |  |  |  |  | C=CC(=O)N[C@H]1COC[C@H]1Nc1ncc(/C=C(\F)c2c(Cl)c(OC)cc(OC)c2Cl)cn1.O=S(=O)(O)O [compound represented by formula (III)] | solubility in simulated gastric fluid (SGF) and simulated intestinal fluid (FaSSIF), in words [3]: relatively good solubility |
